This is an account of results in patent publication US9969775B2, “CGRP antagonist peptides” (Ferring B.V., priority 2015, dated 2018).

Numbered stars: 1 amine (or outer) side, 2 acyl side, 3 side chain; on linkers, the order of the positions; unused ones are H or OH. Bridge positions count the residues as written; N and C are the ends. Square brackets hold non-standard residues; d marks the D form. Peptide text beside a SMILES is read from it. * marks the point of attachment. Phe(4-NHCONH2) = NC(=O)Nc1ccc(C[C@H](N)C(=O)O)cc1; Phe(3-CONH2) = NC(=O)c1cccc(C[C@H](N)C(=O)O)c1; Phe(2-CONH2) = NC(=O)c1ccccc1C[C@H](N)C(=O)O; X5 = O=C([C@H](Cc1ccc(CO)cc1)N[*:1])[*:2]; Phe(4-NH2) = Nc1ccc(C[C@H](N)C(=O)O)cc1; Picolinoyl(3,5-F2) = O=C(c1ncc(F)cc1F)*; Picolinoyl(5-F) = O=C(c1ccc(F)cn1)*; Orn(iPr) = CC(C)NCCC[C@H](N)C(=O)O; Oxazole2carbonyl = O=C(c1ncco1)*; 3Pal = N[C@@H](Cc1cccnc1)C(=O)O; Picolinoyl = O=C(c1ccccn1)*; ΔPro = O=C(O)[C@@H]1C=CCN1; Orn = NCCC[C@H](N)C(=O)O

Experiment [1] addresses T1, hCGRP receptor (CALCRL:RAMP1) (Homo sapiens, UniProt O60894+Q16602).
T1 construct: host or cells: GeneBLAzer CALCRL:RAMP1-CRE-bla Freestyle 293F
Put plainly: CGRP receptor antagonist activity measured by cAMP assay (HTRF). The experiment is classed as cell-based. To be noted: agonist human α-CGRP; for Emax: % MPE: percent of the maximal possible effect, read-out: hCGRP-R Efficacy Antag (%) Ave; for IC50: GeneBLAzer CALCRL:RAMP1-CRE-bla Freestyle 293F cells, 30 minutes, read-out: hCGRP-R IC50 Ave.

Experiment [2] deals with T2, hAM2 receptor (CALCRL:RAMP3) (Homo sapiens, UniProt O60896+Q16602).
T2 construct: expressed in transfected cells; host or cells: GeneBLAzer CALCRL:RAMP3-CRE-bla Freestyle 293F
T2 sequence (Q16602 23-461): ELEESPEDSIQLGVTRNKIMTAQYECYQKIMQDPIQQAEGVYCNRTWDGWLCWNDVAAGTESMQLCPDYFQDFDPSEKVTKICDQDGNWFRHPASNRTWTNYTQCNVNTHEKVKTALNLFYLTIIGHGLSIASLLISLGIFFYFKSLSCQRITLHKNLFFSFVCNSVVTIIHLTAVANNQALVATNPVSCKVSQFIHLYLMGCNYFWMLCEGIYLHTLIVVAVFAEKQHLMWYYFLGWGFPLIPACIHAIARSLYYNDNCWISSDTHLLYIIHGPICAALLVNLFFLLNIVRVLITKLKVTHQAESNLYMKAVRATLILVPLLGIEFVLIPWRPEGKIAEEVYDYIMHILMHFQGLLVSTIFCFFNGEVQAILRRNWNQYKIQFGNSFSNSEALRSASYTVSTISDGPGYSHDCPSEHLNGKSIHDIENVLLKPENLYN
T2 sequence (O60896 24-148): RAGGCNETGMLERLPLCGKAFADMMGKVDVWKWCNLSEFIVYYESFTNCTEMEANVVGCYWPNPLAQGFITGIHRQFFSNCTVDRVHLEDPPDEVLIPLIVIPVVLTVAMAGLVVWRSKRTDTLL
Put plainly: AM2 receptor antagonist activity measured by cAMP assay (HTRF). The class given is cell-based. Conditions: for Emax: % MPE: percent of the maximal possible effect, read-out: hAM2-R Efficacy Antag (%) Ave; for Emax / IC50: agonist human adrenomedullin; for IC50: GeneBLAzer CALCRL:RAMP3-CRE-bla Freestyle 293F cells, read-out: hAM2-R IC50 Ave; for selectivity ratio CGRP/AM2: selectivity ratio for hCGRP over hAM2, calculated from the IC50 values.
Protocol: Antagonist activity for the adrenomedullin receptor AM2 was determined using the method described in Example 6 above, with the following modifications. Instead of GeneBLAzer® CALCRL:RAMP1-CRE-bla Freestyle™ 293F cells, GeneBLAzer® CALCRL:RAMP3-CRE-bla Freestyle™ 293F cells were used to test activity at hAM2 receptors. The agonist was human adrenomedullin, instead of α-CGRP.
In Table 5, the selectivity ratio for hCGRP over hAM2 is calculated as hCGRP-R IC50/hAM2-R IC50.

T1 sequence (Q16602 23-461): as the sequence (Q16602 23-461) above
T1 sequence (O60894 27-148): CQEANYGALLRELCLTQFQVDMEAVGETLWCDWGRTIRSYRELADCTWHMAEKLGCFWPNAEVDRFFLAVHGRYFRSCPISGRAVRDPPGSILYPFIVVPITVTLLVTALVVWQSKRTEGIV

Turning to `CC(C)NCCC[C@@H]1NC(=O)[C@@H](NC(=O)[C@H](Cc2ccc(O)cc2)NC(=O)[C@H](NC(=O)c2ccccn2)C(C)C)CSSC[C@@H](C(=O)N[C@@H](Cc2cccnc2)C(N)=O)NC(=O)[C@H](Cc2ccc(CO)cc2)NC(=O)[C@@H]2CCCN2C(=O)CNC(=O)[C@H](C(C)C)NC(=O)[C@H](CC(=O)O)NC1=O` [Compound 55, Picolinoyl-D-Val-Tyr-c(Cys-Orn(iPr)-Asp-Val-Gly-Pro-Phe(4-CH2OH)-Cys)-3Pal-NH2] (Picolinoyl-[dV]YC[Orn(iPr)]DVGP[X5]C[3Pal]-NH2; disulfide 3-10), in experiment [1], the Emax was 100% and the half-inhibitory concentration (IC50) is 0.18 nM. For the same compound, in experiment [2], the Emax is 100%, the IC50 is 137 nM and the “selectivity ratio CGRP/AM2” value is reported as 746.
As to `CC(C)[C@@H]1NC(=O)[C@H](CC(=O)O)NC(=O)[C@H](CCCN)NC(=O)[C@@H](NC(=O)[C@H](Cc2ccc(O)cc2)NC(=O)[C@H](NC(=O)c2ccc(F)cn2)C(C)C)CSSC[C@@H](C(=O)N[C@@H](Cc2cccnc2)C(N)=O)NC(=O)[C@H](Cc2ccc(CO)cc2)NC(=O)[C@@H]2CCCN2C(=O)CNC1=O` [Compound 56, Picolinoyl(5-F)-D-Val-Tyr-c(Cys-Orn-Asp-Val-Gly-Pro-Phe(4-CH2OH)-Cys)-3Pal-NH2] ({Picolinoyl(5-F)}-[dV]YC[Orn]DVGP[X5]C[3Pal]-NH2; disulfide 3-10), in experiment [1], the Emax is 100% and the IC50 was 0.17 nM. For the same compound, in experiment [2], the Emax was 100%, the IC50 is 55 nM and the “selectivity ratio CGRP/AM2” value was 328.
For the compound `CC(C)NCCC[C@@H]1NC(=O)[C@@H](NC(=O)[C@H](Cc2ccccc2C(N)=O)NC(=O)[C@H](NC(=O)c2ncco2)C(C)C)CSSC[C@@H](C(=O)N[C@@H](Cc2cccnc2)C(N)=O)NC(=O)[C@H](Cc2ccc(O)cc2)NC(=O)[C@@H]2C=CCN2C(=O)CNC(=O)[C@H](C(C)C)NC(=O)[C@H](CC(=O)O)NC1=O` [Compound 57, Oxazole-2-carbonyl-D-Val-Phe(2-Cbm)-c(Cys-Orn(iPr)-Asp-Val-Gly-Dhp-Tyr-Cys)-3Pal-NH2] (Oxazole2carbonyl-[dV][Phe(2-CONH2)]C[Orn(iPr)]DVG[ΔPro]YC[3Pal]-NH2; disulfide 3-10), in experiment [1], the Emax was 100% and the 50% inhibitory concentration (IC50) was 0.12 nM. In experiment [2], the Emax is 99%, the 50% inhibitory concentration (IC50) is 624 nM and the “selectivity ratio CGRP/AM2” value is on record as 5225.
Turning to `CC(C)NCCC[C@@H]1NC(=O)[C@@H](NC(=O)[C@H](Cc2ccccc2C(N)=O)NC(=O)[C@H](NC(=O)c2ncco2)C(C)C)CSSC[C@@H](C(=O)N[C@@H](Cc2cccnc2)C(N)=O)NC(=O)[C@H](Cc2cccnc2)NC(=O)[C@@H]2C=CCN2C(=O)CNC(=O)[C@H](C(C)C)NC(=O)[C@H](CC(=O)O)NC1=O` [Compound 58, Oxazole-2-carbonyl-D-Val-Phe(2-Cbm)-c(Cys-Orn(iPr)-Asp-Val-Gly-Dhp-3Pal-Cys)-3Pal-NH2] (Oxazole2carbonyl-[dV][Phe(2-CONH2)]C[Orn(iPr)]DVG[ΔPro][3Pal]C[3Pal]-NH2; disulfide 3-10), in experiment [1], the Emax was 100% and the IC50 is 0.18 nM. In experiment [2], the Emax is 99%, the IC50 is 476 nM and the “selectivity ratio CGRP/AM2” value is 2588.
Taken in the same sequence, the figures for `CC(C)NCCC[C@@H]1NC(=O)[C@@H](NC(=O)[C@H](Cc2ccccc2C(N)=O)NC(=O)[C@H](NC(=O)c2ncco2)C(C)C)CSSC[C@@H](C(=O)N[C@@H](Cc2cccnc2)C(N)=O)NC(=O)[C@H](Cc2ccc(N)cc2)NC(=O)[C@@H]2C=CCN2C(=O)CNC(=O)[C@H](C(C)C)NC(=O)[C@H](CC(=O)O)NC1=O` [Compound 59, Oxazole-2-carbonyl-D-Val-Phe(2-Cbm)-c(Cys-Orn(iPr)-Asp-Val-Gly-Dhp-4Aph-Cys)-3Pal-NH2] (Oxazole2carbonyl-[dV][Phe(2-CONH2)]C[Orn(iPr)]DVG[ΔPro][Phe(4-NH2)]C[3Pal]-NH2; disulfide 3-10) were 100%, 0.17 nM, 99%, 467 nM and 2770.
Taken in the same sequence, the figures for `CC(C)NCCC[C@@H]1NC(=O)[C@@H](NC(=O)[C@H](Cc2ccccc2C(N)=O)NC(=O)[C@H](NC(=O)c2ncco2)C(C)C)CSSC[C@@H](C(=O)N[C@@H](Cc2cccnc2)C(N)=O)NC(=O)[C@H](Cc2ccc(NC(N)=O)cc2)NC(=O)[C@@H]2C=CCN2C(=O)CNC(=O)[C@H](C(C)C)NC(=O)[C@H](CC(=O)O)NC1=O` [Compound 60, Oxazole-2-carbonyl-D-Val-Phe(2-Cbm)-c(Cys-Orn(iPr)-Asp-Val-Gly-Dhp-4Uph-Cys)-3Pal-NH2] (Oxazole2carbonyl-[dV][Phe(2-CONH2)]C[Orn(iPr)]DVG[ΔPro][Phe(4-NHCONH2)]C[3Pal]-NH2; disulfide 3-10) were 100%, 0.12 nM, 100%, 444 nM and 3759.
For the compound `CC(C)NCCC[C@@H]1NC(=O)[C@@H](NC(=O)[C@H](Cc2ccc(O)cc2)NC(=O)[C@H](NC(=O)c2ccc(F)cn2)C(C)C)CSSC[C@@H](C(=O)N[C@@H](Cc2cccnc2)C(N)=O)NC(=O)[C@H](Cc2ccc(CO)cc2)NC(=O)[C@@H]2CCCN2C(=O)CNC(=O)[C@H](C(C)C)NC(=O)[C@H](CC(=O)O)NC1=O` [Compound 61, Picolinoyl(5-F)-D-Val-Tyr-c(Cys-Orn(iPr)-Asp-Val-Gly-Pro-Phe(4-CH2OH)-Cys)-3Pal-NH2] ({Picolinoyl(5-F)}-[dV]YC[Orn(iPr)]DVGP[X5]C[3Pal]-NH2; disulfide 3-10), in experiment [1], the Emax was 100% and the IC50 was 0.1 nM. Moreover, in experiment [2], the Emax is 100%, the IC50 is 89 nM and the “selectivity ratio CGRP/AM2” value is given as 934.
With `CC(C)NCCC[C@@H]1NC(=O)[C@@H](NC(=O)[C@H](Cc2ccc(O)cc2)NC(=O)[C@H](NC(=O)c2ncc(F)cc2F)C(C)C)CSSC[C@@H](C(=O)N[C@@H](Cc2cccnc2)C(N)=O)NC(=O)[C@H](Cc2ccccc2)NC(=O)[C@@H]2CCCN2C(=O)CNC(=O)[C@H](C(C)C)NC(=O)[C@H](CC(=O)O)NC1=O` [Compound 62, Picolinoyl(3,5-F2)-D-Val-Tyr-c(Cys-Orn(iPr)-Asp-Val-Gly-Pro-Phe-Cys)-3Pal-NH2] ({Picolinoyl(3,5-F2)}-[dV]YC[Orn(iPr)]DVGPFC[3Pal]-NH2; disulfide 3-10), in experiment [1], the Emax was 100% and the IC50 was 0.14 nM. Further, in experiment [2], the Emax is 100%, the IC50 was 85 nM and the “selectivity ratio CGRP/AM2” value is reported as 592.
Regarding `CC(C)NCCC[C@@H]1NC(=O)[C@@H](NC(=O)[C@H](Cc2ccccc2C(N)=O)NC(=O)[C@H](NC(=O)c2ccc(F)cn2)C(C)C)CSSC[C@@H](C(=O)N[C@@H](Cc2cccnc2)C(N)=O)NC(=O)[C@H](Cc2ccc(CO)cc2)NC(=O)[C@@H]2C=CCN2C(=O)CNC(=O)[C@H](C(C)C)NC(=O)[C@H](CC(=O)O)NC1=O` [Compound 63, Picolinoyl(5-F)-D-Val-Phe(2-Cbm)-c(Cys-Orn(iPr)-Asp-Val-Gly-Dhp-Phe(4-CH2OH)-Cys)-3Pal-NH2] ({Picolinoyl(5-F)}-[dV][Phe(2-CONH2)]C[Orn(iPr)]DVG[ΔPro][X5]C[3Pal]-NH2; disulfide 3-10), in experiment [1], the Emax was 101% and the IC50 is 0.1 nM. Besides, in experiment [2], the Emax was 98%, the half-inhibitory concentration (IC50) was 85 nM and the “selectivity ratio CGRP/AM2” value is given as 848.
For `CC(C)NCCC[C@@H]1NC(=O)[C@@H](NC(=O)[C@H](Cc2ccccc2C(N)=O)NC(=O)[C@H](NC(=O)c2ncco2)C(C)C)CSSC[C@@H](C(=O)N[C@@H](Cc2cccnc2)C(N)=O)NC(=O)[C@H](Cc2ccc(CO)cc2)NC(=O)[C@@H]2CCCN2C(=O)CNC(=O)[C@H](C(C)C)NC(=O)[C@H](CC(=O)O)NC1=O` [Compound 64, Oxazole-2-carbonyl-D-Val-Phe(2-Cbm)-c(Cys-Orn(iPr)-Asp-Val-Gly-Pro-Phe(4-CH2OH)-Cys)-3Pal-NH2] (Oxazole2carbonyl-[dV][Phe(2-CONH2)]C[Orn(iPr)]DVGP[X5]C[3Pal]-NH2; disulfide 3-10), in experiment [1], the Emax is 101% and the concentration for half-maximal inhibition (IC50) is 0.12 nM. Moreover, in experiment [2], the Emax was 99%, the 50% inhibitory concentration (IC50) was 1250 nM and the “selectivity ratio CGRP/AM2” value was 10594.
For `CC(C)NCCC[C@@H]1NC(=O)[C@@H](NC(=O)[C@H](Cc2ccccc2C(N)=O)NC(=O)[C@H](NC(=O)c2ncco2)C(C)C)CSSC[C@@H](C(=O)N[C@@H](Cc2cccnc2)C(N)=O)NC(=O)[C@H](Cc2cccc(C(N)=O)c2)NC(=O)[C@@H]2C=CCN2C(=O)CNC(=O)[C@H](C(C)C)NC(=O)[C@H](CC(=O)O)NC1=O` [Compound 65, Oxazole-2-carbonyl-D-Val-Phe(2-Cbm)-c(Cys-Orn(iPr)-Asp-Val-Gly-Dhp-Phe(3-Cbm)-Cys)-3Pal-NH2] (Oxazole2carbonyl-[dV][Phe(2-CONH2)]C[Orn(iPr)]DVG[ΔPro][Phe(3-CONH2)]C[3Pal]-NH2; disulfide 3-10), in experiment [1], the Emax was 101% and the IC50 was 0.06 nM. Moreover, in experiment [2], the Emax was 100%, the IC50 was 318 nM and the “selectivity ratio CGRP/AM2” value was 5492.

The IC50 is the concentration at which inhibition is half-maximal.
